From patent US20060088545A1, “Use of inhibitors of the protease of the human immunodeficiency virus (hiv) to block cell migration and/or invasion, tissue infiltration and oedema for the therary of diseases associated therewith” (priority 2001, published 2006)
Entries after “also recorded” stand apart in the source; their conditions may differ.

Tests used:
[1] = test system: vascular permeability and oedema induced by KS cells; assay: Vascular permeability and oedema induced by KS cells in nude mice (Evans blue); type: in vivo
Description: As a control, each animal was inoculated controlaterally with the same volume of diluting buffer and Matrigel. After 18 hours the animals were sacrificed and the quantity of staining decanted in the inoculation site of the KS cells was measured at the level of the two largest perpendicular diameters by means of a gauge. The quantity of staining decanted was also assessed after taking skin from the inoculation site and quantified with the spectrophotometer after extraction with formamide for 24 hours at 56° C. […] The quantity of staining decanted was calculated after subtraction of the optical density measured on the control site.
After 12 hours the animals were sacrificed, the stained area present on the site of inoculation of the KS cells was measured with a caliper and the extravasated dye was extracted from tissues with formamide and measured by spectrophotometry (Nakamura, Science 1992).

casein-degrading MMPs = assay: Casein zymography of supernatants from HUVEC treated with bFGF or TPA; type: cell-based, human; conditions: 10 μM; 8 or 24 hours
Description: FIG. 11. Saquinavir blocks the production of casein-degrading MMPs by endothelial cells. […] Aliquots of cell supernatants normalised to total cell number were then analysed for MMP activity by gel zymography as described above in gels containing casein (2 mg/ml) instead of gelatin.). Panel A: casein zymography performed with cell supernatants harvested after 8 hours of culture in the presence of TPA or bFGF; Panel B: casein zymography performed with cell supernatants harvested after 24 hours of culture in the presence of TPA or bFGF. Casein is specifically cleaved by stromelysins (MMP-3, MMP-10, MMP-11) and matrilysin (MMP-7) (Whittaker and Ayscough, 2001) This led to the appearance of destained areas due to caseinolytic activity present in cell supernatants.

KS cells = assay: KS cell invasion of matrigel, Boyden chamber, bFGF chemo-attractant; type: cell-based, human; conditions: KS3, KS8, KS12 strains; dose-dependent
Description: Both drugs inhibited the capacity of the KS cells to invade the Matrigel membrane in a dose-dependent manner. In particular, both the HIV-PI inhibited invasion as compared to the levels observed in control KS cells (p<0.05).
The assay was performed as described in FIG. 3. […] The cells were harvested and then plated in duplicate (5×10^5 in a culture medium containing 0.05% BSA) in the upper compartment of the Boyden chamber, always in the presence of HIV-PI or buffer. bFGF (20 ng/ml) was placed in the bottom compartment as a chemo-attractant.
After 6 hours the cells that invaded the matrigel membrane were stained and counted as described in the key to FIG. 3.
In contrast, both drugs inhibited KS cell capability of invading a matrigel substrate in a dose-dependent manner. In particular, both HIV-PI inhibit the invasion of KS cells by 30-40% (p<0.05) (Table 4 and FIG. 13).
Migration and invasion assays were carried out essentially as detailed in the key to FIGS. 2 and 3.

[2] = test system: dermal microvascular endothelial cells (H-DMVEC); assay: Invasion assay of dermal microvascular endothelial cells in response to bFGF; type: cell-based, human
Description: (§1) Both assays were performed by the Boyden chamber separated in two compartments by polycarbonate filters with 12 μm pores (Nucleoprobe, Cabin John, Md.), coated with collagen IV (Collaborative Biomedical Products) for migration, or with collagen IV and Matrigel together for invasion, as described previously (Barillari et al., 1999b). […] After 5 hours (migration) or 6 hours (Invasion) of incubation, the non-migrated cells present on the top surface of the filters were mechanically removed, while the migrated cells on the bottom surface were fixed in methanol and stained with toluidine blue (Sigma Chemical Co., St. Louis, Mo.). The cells present in 5-10 microscopic fields of the filters, chosen at random, were counted as described previously (Barillari et al., 1999b).
Basal invasion in the absence of bFGF was assumed as 100%.

IL-1α = IL-1α production by KS cells (ELISA); type: cell-based, human; conditions: 0.1, 1 and 10 μM, 5 days + 24 hours
Description: (§2) After 24 hours of incubation, the supernatants of the cultures were tested by ELISA (R & D Systems, Minneapolis, Minn., USA) to determine the quantity of IL-6 present in the medium. The quantity of IL-6 is expressed in pg/ml of supernatant. The same tests were carried out for bFGF, VEGF, IL-1α and IL-1β by means of commercial ELISA kits.
(§3) KS cells secrete cytokines with an inflammatory, oedemigenic, angiogenic and proliferative activity with autocrine and paracrine effects (Ensoli and Stürzl, 1998). These factors mediate all the processes required for KS-like lesions formation (angiogenesis, cellular proliferation and invasion, inflammatory Infiltration, oedema) and vascular permeability and oedema induced by KS cells in nude mice. […] The quantity of bFGF, VEGF, IL-1 and IL-6 was dosed with immuno-enzymatic trials in the supernatants of the KS cells after 24 hours of culture in the absence of serum and in the continuous presence of the two HIV-PI (ELISA). […] Furthermore IL-6 plays a key role in the multicentric Cstleman's diseases and in the growth of lymphomas (Tosato et al., 1993; Peterson and Frizzera, 1993; Asou et al., 1998; Ramsay et al., 1994), another type of tumour whose incidence is reduced in patients treated with HIV-PI (International Collaboration on HIV and Cancer 2000).

[3] = test system: primary macrovascular (umbilical vein) endothelial cells (HUVEC); assay: Boyden chamber invasion assay of HUVEC in response to bFGF; type: cell-based, human; conditions: 0.1, 1 or 10 μM; bFGF 50 ng/ml; 6 hours
Description: Both assays were performed on endothelial cells.
as §1
The concentrations of HIV-PI used were the same as those present in plasma of treated patients (Deeks et al., 1997).

IL-1β = IL-1β production by KS cells (ELISA); type: cell-based, human; conditions: 0.1, 1 and 10 μM, 5 days + 24 hours
Description: as §2, §3

MMP-2 = assay: Gelatin zymography of supernatants from TPA-stimulated HUVEC; type: cell-based, human; conditions: TPA 50 nM; 8 hours; 10 μM
Description: HUVEC were cultivated for 24 hours in RPMI 1640 with the addition of 10% FBS. […] Aliquots of cell supernatants were then assayed for MMP-2 activity by gel zymography as described above. HT1080 is a tumour cell line secreting large amount of MMP-2 that was used as a control. […] The amount of supernatant analysed was normalised to the total cell number.

**Q.** How did the “reduction of the stained area (measurement with a gauge/caliper)” value [1] turn out when `CC(C)(C)NC(=O)[C@@H]1C[C@@H]2CCCC[C@@H]2CN1C[C@@H](O)[C@H](Cc1ccccc1)NC(=O)[C@H](CC(N)=O)NC(=O)c1ccc2ccccc2n1` [Saquinavir, saquinavir] was run?
**A.** 47.5%

**Q.** What about the “reduction of the amount of extravasated dye (spectrophotometer)” value ([1]; formamide extraction) of the same compound?
**A.** 44.5%

**Q.** And the “release of casein-degradation activity induced by bFGF or TPA” value (casein-degrading MMPs)?
**A.** inhibited

**Q.** What about the “invasive capacity of KS cells” value (KS cells) of the same compound?
**A.** inhibit

**Q.** What about the “invasion in response to bFGF” value [2] of the same compound?
**A.** inhibit

**Q.** And the “production of IL-1α by KS cells” value (IL-1α)?
**A.** reduced; also recorded: inhibited

**Q.** And the “invasion induced by bFGF” value [3]?
**A.** block

**Q.** What about the “production of IL-1β by KS cells” value (IL-1β) of the same compound?
**A.** reduced; also recorded: inhibited

**Q.** For `CC(C)(C)NC(=O)[C@@H]1CN(Cc2cccnc2)CCN1C[C@@H](O)C[C@@H](Cc1ccccc1)C(=O)N[C@H]1c2ccccc2C[C@H]1O` [Indinavir, indinavir], which “total amount of MMP-2 released by cells in the presence of TPA” value (MMP-2) is on record?
**A.** inhibited

**Q.** What about the “invasive capacity of KS cells” value (KS cells) of the same compound?
**A.** inhibit

**Q.** What about the “invasion in response to bFGF” value [2] of the same compound?
**A.** inhibit

**Q.** What about the “production of IL-1α by KS cells” value (IL-1α) of the same compound?
**A.** inhibited

**Q.** What about the “production of IL-1α by KS cells” value (IL-1α; listed as indinavir) of the same compound?
**A.** reduced

**Q.** What about the “invasion induced by bFGF” value [3] of the same compound?
**A.** block

**Q.** What about the “production of IL-1β by KS cells” value (IL-1β) of the same compound?
**A.** inhibited

**Q.** And the “production of IL-1β by KS cells” value (IL-1β; listed as indinavir)?
**A.** reduced
